29 compounds from patent US10919896B2, “Preparation and uses of pyrimidinone derivatives” (Cancer Research Technology Limited, priority 2016, dated 2021) can be followed below.

For one experiment, the target named is Cdc7/ASK (Homo sapiens, UniProt O00311). Put plainly: Cdc7 Biochemical Assay Method 1: 384 well ELISA, whole protein substrate MCM2, antibody against Phospho MCM2 (S53). The arrangement: purchased. To be noted: 2 μM ATP, read-out: Biochemical Method 1 (pIC50) (converted). Put shortly:
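MCM2 protein substrate was coated on nickel-chelate plates, then Cdc7/ASK was added with 2 μM ATP in 50 mM Tris-HCl pH 8.5, 10 mM MgCl2, 1 mM DTT, 4% DMSO, 90 min at room temperature. Phospho-MCM2 (S53) was detected by ELISA with an AP secondary and PNPP absorbance. IC50 was derived from % inhibition versus no-compound and no-enzyme controls.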

The subject of experiment [1] is Cdc7 (pS53MCM2 levels in HCT116 cells). Put plainly: Cdc7 Cell Pharmacodynamics Assay Method 1: pS53MCM2 levels in HCT116 cells, 6 hours. The class given is cell-based. To be noted: for EC50: Homo sapiens, HCT-116, 6 h, read-out: Biomarker Method 1 (pEC50) (converted). From the text:
This protocol describes a method to investigate the inhibition of Cdc7 activity of compounds by measuring pS53MCM2 levels in cells after treatment.
• HCT116 cells (wild type P53 positive) • McCoys 5A media (PAA Laboratories Ltd, E15-022) • 10% FCS (Sera Laboratories International Ltd, EU000F Batch:108005) • 100× L-Glutamine (Invitrogen, 25030-024) • D-PBS without CaCl2 and MgCl2 (Invitrogen, ref 14190-094) • Trypsin/EDTA (Invitrogen 25300-054) • 2% BSA in PBS • Cell Extraction Buffer (Invitrogen FNN0011) • Protease inhibitor cocktail (Sigma P-2714) • PMSF 0.3M stock in DMSO (Sigma P7626) • Antibody-rabbit pMCM2 Ser53 (Bethyl #A300-756A) • Antibody-goat MCM2 (Bethyl #A300-122A) • Antibody-goat Anti Rabbit IgG HRP (Perbio Science UK Ltd 31462) • 1×PBS • FACE Wash buffer (0.02% Triton X100 in 1×PBS) • SuperSignal ELISA Pico Chemiluminescent Substrate (Perbio Science UK Ltd 37070) Method • 72 hours prior to the start of the experiment plate 1×10^6 HCT 116 cells in a 150 cm^2 flask in complete McCoys 5A media (+10% FCS+1× L-glutamine). • Plate 20,000 HCT116 cells per well in standard TC treated 96 well plate in 100 μL complete McCoys 5A media. • Allow cells to settle overnight in incubator set at 37° C. and 5% CO2. • Remove intermediate plate from fridge and place at 37° C. overnight to allow to equilibrate. • Cell treatment: cell assay plate 100 μL; daughter to cell transfer volume 3.33 μL; daughter volume 45 μL; mother plate to daughter volume 5 μL. • Once all cells are treated remove the cells to the incubator and incubate for 6 hours. • Dilute the capture antibody (total MCM2#A300-122A) 1 in 250 in the required volume of PBS (5 mL per assay plate) and add 50 μL to each well of a Hybond plate excluding wells 12E to 12H. In these wells add 50 μL PBS. Seal the plate and incubate at room temperature for a minimum of 2 hours. • Defrost aliquot of Invitrogen Cell Extraction Buffer (FNN0011) on ice and supplement with appropriate volume of both Sigma protease inhibitor cocktail (P-2714) and PMSF (final conc 1 mM from a 1 M stock in DMSO). • After the 6 hour cell treatment time tap out the media from the assay plates and place them in the −70° C. freezer for at least 5 minutes. • Remove plates from freezer and add 20 μL of ice cold complete lysis buffer on ice. Incubate cells for 30 minutes at 4° C. • Add 80 μL per well 2% BSA. • Transfer 80 μL from the lysis plate to the same wells in the capture/ELISA plate. Cover with plate seal and incubate plates overnight at 4° C. • Wash plates with PBS, remove any residual remaining liquid and add 50 μL per well of pMCM2 Ser53 antibody (#A300-756A) diluted 1 in 100 in 2% BSA. Cover plate and incubate at room temperature for 2 hours with gentle shaking. • Wash plates with PBS, remove any residual remaining liquid and Incubate with 50 μL goat anti rabbit antibody (1 in 800 dilution in 2% BSA) for 1 hour at room temperature. • Wash plates with PBS, remove any residual remaining liquid and add 50 μL mixed SuperSignal Pico substrate. • Incubate each plate for 5 minutes at room temperature shielding the plates from direct light (with a cover plate). Read plates with the luminescent detection. Method 2A and 2B

Sequence of Cdc7/ASK (O00311 whole entry): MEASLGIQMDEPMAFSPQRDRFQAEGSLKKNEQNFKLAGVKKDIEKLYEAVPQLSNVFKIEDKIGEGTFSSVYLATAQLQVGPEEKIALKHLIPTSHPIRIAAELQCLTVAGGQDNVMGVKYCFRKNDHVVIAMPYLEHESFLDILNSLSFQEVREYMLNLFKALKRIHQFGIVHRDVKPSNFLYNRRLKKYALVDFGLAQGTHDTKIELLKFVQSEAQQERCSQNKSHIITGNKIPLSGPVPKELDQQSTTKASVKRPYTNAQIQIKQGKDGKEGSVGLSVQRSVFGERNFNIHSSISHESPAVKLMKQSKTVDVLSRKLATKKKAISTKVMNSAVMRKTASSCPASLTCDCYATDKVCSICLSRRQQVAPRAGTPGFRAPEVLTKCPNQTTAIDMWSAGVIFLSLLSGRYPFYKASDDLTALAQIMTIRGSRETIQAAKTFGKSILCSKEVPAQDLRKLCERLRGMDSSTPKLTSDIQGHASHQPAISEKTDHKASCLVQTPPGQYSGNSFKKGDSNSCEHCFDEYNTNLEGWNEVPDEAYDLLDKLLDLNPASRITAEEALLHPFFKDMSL
Sequence of Cdc7/ASK (Q9UBU7 whole entry partner): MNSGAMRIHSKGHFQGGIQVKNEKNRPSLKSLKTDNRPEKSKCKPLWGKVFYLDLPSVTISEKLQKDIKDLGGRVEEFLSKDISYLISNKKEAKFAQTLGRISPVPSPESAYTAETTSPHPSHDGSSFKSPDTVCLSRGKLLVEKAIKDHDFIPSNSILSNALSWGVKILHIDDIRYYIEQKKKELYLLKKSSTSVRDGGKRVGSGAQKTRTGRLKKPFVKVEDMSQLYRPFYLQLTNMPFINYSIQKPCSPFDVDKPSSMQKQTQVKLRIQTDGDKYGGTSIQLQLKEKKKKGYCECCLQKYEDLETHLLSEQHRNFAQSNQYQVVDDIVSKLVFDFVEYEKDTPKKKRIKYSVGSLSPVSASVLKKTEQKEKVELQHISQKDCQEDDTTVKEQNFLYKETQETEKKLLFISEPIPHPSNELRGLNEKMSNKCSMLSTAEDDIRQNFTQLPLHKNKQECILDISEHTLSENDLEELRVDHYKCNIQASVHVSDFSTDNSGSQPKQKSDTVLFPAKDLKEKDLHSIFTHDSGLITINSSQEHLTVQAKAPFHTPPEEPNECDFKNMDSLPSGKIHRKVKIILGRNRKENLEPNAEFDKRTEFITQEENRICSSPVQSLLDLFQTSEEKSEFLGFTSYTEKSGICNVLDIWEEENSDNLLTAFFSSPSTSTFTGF

As for `O=c1[nH]c(-c2ccncc2)nc(N2CCN(c3cccc(F)c3)CC2)c1Cl` [Compound 111], on Cdc7/ASK, the IC50 was 0.0162 µM. Moreover, the EC50 in experiment [1] is 0.759 µM.
For the compound `O=c1[nH]c(-c2ccncc2)nc(N2CCNC(C(F)(F)F)C2)c1Cl` (stereo not shown) [Compound 101], the IC50 on Cdc7/ASK was 0.00437 µM. In addition, in experiment [1], the EC50 is 0.0447 µM.
On to `O=c1[nH]c(-c2ccncc2)nc(N2CCOC(c3ccccc3)C2)c1Cl` (stereo not shown) [Compound 91], for which the IC50 on Cdc7/ASK was 0.0661 µM. Moreover, the EC50 in experiment [1] was 3.16 µM.
Consider `O=c1[nH]c(-c2ccncc2)nc(N2CCC3(CC2)COC3)c1Cl` [Compound 151], for which, on Cdc7/ASK, the IC50 is 0.0347 µM. Further, the EC50 in experiment [1] is 0.501 µM.
On to `O=c1[nH]c(-c2ccncc2)nc(N2CCCC(F)(F)C2)c1Cl` [Compound 132], for which the IC50 on Cdc7/ASK was 0.00195 µM. For the same compound, in experiment [1], the EC50 is 0.0339 µM.
On to `CC(C)CN1CCN(c2nc(-c3ccncc3)[nH]c(=O)c2Cl)CC1` [Compound 82], for which, on Cdc7/ASK, the IC50 was 0.0316 µM. The EC50 in experiment [1] is 0.977 µM.
With `O=c1[nH]c(-c2ccncc2)nc(N2CCN(CC(F)(F)F)CC2)c1Cl` [Compound 146], the IC50 at Cdc7/ASK was 0.00724 µM. Further, in experiment [1], the EC50 is 0.229 µM.
Turning to `O=c1[nH]c(-c2ccncc2)nc(N2CCN(CC3CCCC3)CC2)c1Cl` [Compound 84], the IC50 on Cdc7/ASK was 0.0234 µM. Moreover, the EC50 in experiment [1] was 0.589 µM.
As to `CCN1CCN(c2nc(-c3ccncc3)[nH]c(=O)c2Cl)CC1` [Compound 31], on Cdc7/ASK, the IC50 is 0.0398 µM. Further, in experiment [1], the EC50 was 0.398 µM.
`CC1CN(c2nc(-c3ccncc3)[nH]c(=O)c2Cl)CCN1C` (stereo not shown) [Compound 28]: the IC50 on Cdc7/ASK is 0.0112 µM. In addition, in experiment [1], the EC50 was 0.191 µM.
In the case of `O=c1[nH]c(-c2ccncc2)nc(N2CC3C(C2)C3(F)F)c1Cl` (stereo not shown) [Compound 134], on Cdc7/ASK, the IC50 is 0.0191 µM. Moreover, the EC50 in experiment [1] is 0.692 µM.
In the case of `O=c1[nH]c(-c2ccncc2)nc(N2CCN[C@@H](CO)C2)c1Cl` [Compound 129], at Cdc7/ASK, the IC50 is 0.00209 µM. Moreover, the EC50 in experiment [1] is 0.871 µM.
Take `O=c1[nH]c(-c2ccncc2)nc(N2CCC(O)CC2)c1Cl` [Compound 104]: the IC50 on Cdc7/ASK was 0.0038 µM. Further, the EC50 in experiment [1] was 0.155 µM.
With `CC1CC(C)CN(c2nc(-c3ccncc3)[nH]c(=O)c2Cl)C1` (stereo not shown) [Compound 103], the IC50 at Cdc7/ASK was 0.0295 µM. The EC50 in experiment [1] is 1.15 µM.
As for `O=c1[nH]c(-c2ccncc2)nc(N2C3CCCC2COC3)c1Cl` [Compound 154], at Cdc7/ASK, the IC50 is 0.00245 µM. The EC50 in experiment [1] is 0.0631 µM.
In the same order, the values of `C[C@H]1CN(c2nc(-c3ccncc3)[nH]c(=O)c2Cl)CCN1C(=O)C(F)(F)F` [Compound 77, 5-chloro-4-[(3S)-3-methyl-4-(2,2,2-trifluoroacetyl)piperazin-1-yl]-2-(4-pyridyl)-1H-pyrimidin-6-one] are 0.00295 µM and 0.0933 µM.
For the compound `N#CC1CCN(c2nc(-c3ccncc3)[nH]c(=O)c2Cl)CC1` [Compound 153], the IC50 at Cdc7/ASK is 0.00178 µM. Moreover, the EC50 in experiment [1] was 0.126 µM.
In the case of `O=c1[nH]c(-c2ccncc2)nc(N2CCN(c3cccnc3)CC2)c1Cl` [Compound 116], on Cdc7/ASK, the IC50 was 0.0126 µM. In addition, the EC50 in experiment [1] is 0.603 µM.
In the same order, the values of `O=c1[nH]c(-c2ccncc2)nc(N2CCC(F)(F)CC2)c1Cl` [Compound 127] are 0.0457 µM and 0.224 µM.
As for `O=c1[nH]c(-c2ccncc2)nc(N2CCNC3(CCC3)C2)c1Cl` [Compound 158], the IC50 at Cdc7/ASK was 0.0195 µM. Also, in experiment [1], the EC50 was 1.74 µM.
Take `O=c1[nH]c(-c2ccncc2)nc(N2CCCC(O)C2)c1Cl` (stereo not shown) [Compound 167]: the IC50 on Cdc7/ASK was 0.00813 µM. Further, in experiment [1], the EC50 is 0.832 µM.
With `CC(C)[C@H]1CN(c2nc(-c3ccncc3)[nH]c(=O)c2Cl)CCN1` [Compound 309], the IC50 at Cdc7/ASK was 0.002 µM. Further, the EC50 in experiment [1] was 0.0617 µM.
For `O=c1[nH]c(-c2ccncc2)nc(N2CCCC(C(F)(F)F)C2)c1Cl` (stereo not shown) [Compound 107], the IC50 on Cdc7/ASK is 0.00708 µM. Further, in experiment [1], the “Biomarker Method 1 (pEC50)” value is 6.44.
For the compound `O=c1[nH]c(-c2ccncc2)nc(N2CCCN(CC(F)(F)F)CC2)c1Cl` [Compound 142], the IC50 on Cdc7/ASK was 0.0155 µM. The EC50 in experiment [1] is 0.661 µM.
In the same order, the values of `CC(C)(C)[C@H]1CN(c2nc(-c3ccncc3)[nH]c(=O)c2Cl)CCN1` [Compound 157] are 0.00295 µM and 0.0794 µM.
Regarding `C[C@H]1CN(c2nc(-c3ccncc3)[nH]c(=O)c2Cl)CCN1CC(F)(F)F` [Compound 181, 5-chloro-4-[(3S)-3-methyl-4-(2,2,2-trifluoroethyl)piperazin-1-yl]-2-(4-pyridyl)-1H-pyrimidin-6-one], the IC50 at Cdc7/ASK is 0.0024 µM. Besides, the EC50 in experiment [1] is 0.132 µM.
In the same order, the values of `CC(C)C1CN(c2nc(-c3ccnc(F)c3)[nH]c(=O)c2Cl)CCN1` (stereo not shown) [Compound 310] are 0.00347 µM and 0.0589 µM.
Consider `CC1CCN(c2nc(-c3ccncc3)[nH]c(=O)c2Cl)CC1` [Compound 122], for which, on Cdc7/ASK, the IC50 is 0.00661 µM. Moreover, the EC50 in experiment [1] is 0.417 µM.
For the compound `CC1CCCN(c2nc(-c3ccncc3)[nH]c(=O)c2Cl)C1` (stereo not shown) [Compound 105], the IC50 on Cdc7/ASK was 0.0141 µM. Besides, the EC50 in experiment [1] was 0.427 µM.
